# Results taken from the NIST ThermoML archive (doi:10.1016/j.jct.2014.05.020).
# ± gives the expanded uncertainty stated by the source.
# Test: excess molar enthalpy (molar enthalpy of mixing); xn = mol fraction of the nth substance listed
# Conditions: Liquid, Flow calorimetry
smiles,measurement,setting,value
CCO [ethanol] + O,excess molar enthalpy,"423.2 K, 5000 kPa, x2 = 0.1473",0.0939 ± 0.00359 kcal/mol
same,excess molar enthalpy,"423.2 K, 5000 kPa, x2 = 0.2673",0.159 ± 0.00335 kcal/mol
same,excess molar enthalpy,"423.2 K, 5000 kPa, x2 = 0.4508",0.215 ± 0.00335 kcal/mol
same,excess molar enthalpy,"423.2 K, 5000 kPa, x2 = 0.5845",0.218 ± 0.00335 kcal/mol
same,excess molar enthalpy,"423.2 K, 5000 kPa, x2 = 0.6864",0.196 ± 0.00311 kcal/mol
same,excess molar enthalpy,"423.2 K, 5000 kPa, x2 = 0.7665",0.164 ± 0.00287 kcal/mol
same,excess molar enthalpy,"423.2 K, 5000 kPa, x2 = 0.8312",0.128 ± 0.00287 kcal/mol
same,excess molar enthalpy,"423.2 K, 5000 kPa, x2 = 0.8845",0.0917 ± 0.00263 kcal/mol
same,excess molar enthalpy,"423.2 K, 5000 kPa, x2 = 0.9292",0.0569 ± 0.00263 kcal/mol
same,excess molar enthalpy,"423.2 K, 5000 kPa, x2 = 0.9673",0.0255 ± 0.00263 kcal/mol
same,excess molar enthalpy,"423.2 K, 15000 kPa, x2 = 0.1466",0.0918 ± 0.00382 kcal/mol
same,excess molar enthalpy,"423.2 K, 15000 kPa, x2 = 0.2662",0.156 ± 0.0043 kcal/mol
same,excess molar enthalpy,"423.2 K, 15000 kPa, x2 = 0.4493",0.215 ± 0.00454 kcal/mol
same,excess molar enthalpy,"423.2 K, 15000 kPa, x2 = 0.5831",0.218 ± 0.00454 kcal/mol
same,excess molar enthalpy,"423.2 K, 15000 kPa, x2 = 0.6851",0.197 ± 0.0043 kcal/mol
same,excess molar enthalpy,"423.2 K, 15000 kPa, x2 = 0.7655",0.166 ± 0.0043 kcal/mol
same,excess molar enthalpy,"423.2 K, 15000 kPa, x2 = 0.8304",0.13 ± 0.0043 kcal/mol
same,excess molar enthalpy,"423.2 K, 15000 kPa, x2 = 0.8839",0.0937 ± 0.00454 kcal/mol
same,excess molar enthalpy,"423.2 K, 15000 kPa, x2 = 0.9289",0.0584 ± 0.00454 kcal/mol
same,excess molar enthalpy,"423.2 K, 15000 kPa, x2 = 0.9671",0.0263 ± 0.00454 kcal/mol
same,excess molar enthalpy,"523.2 K, 15000 kPa, x2 = 0.1466",0.188 ± 0.00645 kcal/mol
same,excess molar enthalpy,"523.2 K, 15000 kPa, x2 = 0.2662",0.304 ± 0.00478 kcal/mol
same,excess molar enthalpy,"523.2 K, 15000 kPa, x2 = 0.4493",0.401 ± 0.00454 kcal/mol
same,excess molar enthalpy,"523.2 K, 15000 kPa, x2 = 0.5831",0.41 ± 0.00574 kcal/mol
same,excess molar enthalpy,"523.2 K, 15000 kPa, x2 = 0.6851",0.373 ± 0.00765 kcal/mol
same,excess molar enthalpy,"523.2 K, 15000 kPa, x2 = 0.7655",0.322 ± 0.0098 kcal/mol
same,excess molar enthalpy,"523.2 K, 15000 kPa, x2 = 0.8304",0.261 ± 0.012 kcal/mol
same,excess molar enthalpy,"523.2 K, 15000 kPa, x2 = 0.8839",0.198 ± 0.0143 kcal/mol
same,excess molar enthalpy,"523.2 K, 15000 kPa, x2 = 0.9289",0.131 ± 0.0172 kcal/mol
same,excess molar enthalpy,"523.2 K, 15000 kPa, x2 = 0.9671",0.0634 ± 0.0237 kcal/mol
